Results taken from US11060715B2, “Ex vivo proliferation of epithelial cells” (PROPAGENIX INC., priority 2015, dated 2021).
Where a name gives a salt, the structure may show the parent alone.

Columns and labels:
[1] = test system: late passage prostate epithelial cells; experiment: Proliferation of late passage prostate epithelial cells in KSFM plus compounds, 5 days; type: cell-based, human; details: for total cell number after 5 days: KSFM plus individual compound alone, 1 μM and 0.2 μM (FIG. 16)
Description: Stocks of certain chemicals used in the study were prepared by dissolving in DMSO to 10 mM. The chemical stocks were added to culture media to desired final concentrations, as described in Examples 2 to 5 and shown in FIGS. 1 to 17, from the time when cell culture was initiated.
In a control experiment with no added compound, there was minimum increase of cell numbers after 5 days.
In control experiment with no inhibitor added to KSFM, there was minimum increase of cell numbers after 5 days. […] As described above, these include Rho kinase inhibitors (i.e., Rho-associated protein kinase inhibitors) such as Y-27632, SR 3677, GSK 429286 and Thiazovivin; PAK1 inhibitor IPA-3; and myosin II inhibitor (i.e., non-muscle myosin II (NM II) inhibitor) Blebbistatin.

keratinocytes = experiment: Expansion of keratinocytes in KSFM supplemented with combinations of components; type: cell-based, human; details: for cell growth rate: KSFM with EGF, isoproterenol, A 83-01 and rHA
Description: In another experiment, keratinocytes were cultured in KSFM supplemented with various combinations of components.
In another experiment, keratinocytes were cultured in the presence of increasing doses of ROCK inhibitor (Y-27632) or Myosin II ATPase inhibitor (blebbistatin), in KSFM supplemented with EGF (0.5 ng/mL), isoproterenol (3 μM), A 83-01 (1 μM), and recombinant human serum albumin (expressed in rice; 100 μg/mL).
In another experiment, keratinocytes were cultured in the presence of increasing doses (between 10 nM to 2 μM) of retinoic acid receptors (RAR) antagonist BMS-453 or retinoic acid receptors (RAR) antagonist BMS-195614, in KSFM supplemented with EGF (0.5 ng/mL), isoproterenol (3 μM), A 83-01 (1 μM), and recombinant human serum albumin (expressed in rice; 100 μg/mL).

[2] = test system: bronchial epithelial cells; experiment: Growth (population doublings) of bronchial epithelial cells in culture; type: cell-based, human; details: added to KSFM
Description: (§1) Epithelial cells (prostate epithelial cells and bronchial epithelial cells) were plated at 3,000-10,000 viable cells/cm^2 in tissue culture vessels, using culture medium as indicated in Examples 2 to 5 and FIGS. 1 to 17, and incubated at 37° C. with 5% CO2. The medium was changed every 2 or 3 days. Cells were sub-cultured using standard trypsinization method when they were about 70-90% confluent. Total cell number was determined using the Countess II Automated Cell Counter (Life Technologies, AMQAX1000) following manufacturer's instructions.
(§2) A formula used for the calculation of population doublings (PD) is presented in Equation A: n=3.32*(log Y−log I)+X Equation A where n=the final PD number at end of a given subculture, Y=the cell yield at the time of harvesting, I=the cell number used as inoculum to begin that subculture, and X=the doubling level of the inoculum used to initiate the subculture being quantitated.
(§3) Prostate and bronchial epithelial cells were grown in KSFM in the presence of Rho kinase inhibitor (i.e., Rho-associated protein kinase inhibitor) Y-27632.
Similar to the experiment above, bronchial epithelial cells were grown in KSFM in the presence of media alone, ALK5 inhibitor A83-01, Rho kinase inhibitor (i.e., Rho-associated protein kinase inhibitor) Y-27632, or both (with or without collagen).

[3] = test system: human telomerase reverse transcriptase (hTERT) gene; experiment: hTERT expression by quantitative real-time PCR in prostate epithelial cells; type: cell-based; details: KSFM
Description: (§4) Total RNA was prepared using TRIzol® Plus RNA Purification Kit (Life Technologies, 12183-555) and PureLink® RNA Mini Kit (Life Technologies, 12183018A), following the manufacturer's instructions. One hundred nanogram total RNA was used for the determination of human telomerase reverse transcriptase (hTERT) expression using the TaqMan® RNA-to-CT™ 1-Step Kit (Life Technologies, 4392938), following the protocol provided by the supplier. hTERT primers and Taqman® probe used were as follows: forward primer, 5′-[…]-3′ (SEQ ID NO:7), reverse primer, 5′-[…]-3′ (SEQ ID NO:8) and Taqman® probe, 5′-[…]-3′ (SEQ ID NO:9).
(§5) In this example, hTERT expression in epithelial cells was assessed in the presence of an ALK5 inhibitor, a Rho kinase inhibitor (i.e., a Rho-associated protein kinase inhibitor), or both. Expression of hTERT gene was examined by quantitative real-time PCR in bronchial epithelial cells and prostate epithelial cells. The cells were treated with an ALK5 inhibitor, A83-01, or a Rho kinase inhibitor (i.e., a Rho-associated protein kinase inhibitor), Y-27632, or both inhibitors, at different passages in KSFM.
As shown in FIG. 6A and FIG. 6B, prostate epithelial cells at early passage (p2) expressed low level of hTERT, which quickly diminished at passage 3 and became non-detectible by passage 5.

[4] = test system: prostate epithelial cells; experiment: Growth (population doublings) of prostate epithelial cells in culture; type: cell-based, human; details: added to KSFM
Description: as §1, §2, §3
To examine the effects of additional in vitro and/or ex vivo growth conditions, prostate epithelial cells were grown in KSFM or PrEGM in the presence of media alone, ALK5 inhibitor A83-01, Rho kinase inhibitor (i.e., Rho-associated protein kinase inhibitor) Y-27632, or both (with or without collagen).

[5] = test system: human telomerase reverse transcriptase (hTERT) gene; experiment: hTERT expression by quantitative real-time PCR in bronchial epithelial cells; type: cell-based; details: KSFM
Description: as §4, §5

[6] = used together with A83-01 in KSFM, 5 μM, 1 μM and 0.2 μM (FIG. 17)
[7] = increasing doses (between 10 nM to 2 μM)

Compound	total cell number after 5 days ([1]; 5 μM)	cell proliferation after 5 days [1, 6]	other results
O=C(NCc1ccccc1)c1csc(Nc2ccncn2)n1 [Thiazovivin, N-Benzyl-[2-(pyrimidin-4-yl)amino]thiazole-4-carboxamide]	slight increase of total cell numbers	synergistically increased	–
Cc1ccc2c(c1)C(=O)C1(O)CCN(c3ccccc3)C1=N2 (racemic) [Blebbistatin, (±)-1,2,3,3a-Tetrahydro-3a-hydroxy-6-methyl-1-phenyl-4H-pyrrolo[2,3-b]quinolin-4-one]	did not increase proliferation	synergistically increased	cell growth rate (keratinocytes; increasing doses): No significant increase of cell growth rate
Oc1ccc2ccccc2c1SSc1c(O)ccc2ccccc12 [IPA-3, 1,1′-Dithiodi-2-naphthtol]	did not increase proliferation	synergistically increased	–
Cc1cccc(-c2nn(C(=S)Nc3ccccc3)cc2-c2ccnc3ccccc23)n1 [A83-01, 3-(6-Methyl-2-pyridinyl)-N-phenyl-4-(4-quinolinyl)-1H-pyrazole-1-carbothioamide]	pronounced increase of total cell number	–	total population doublings [2]: also increased the total population doublings; cell proliferation after 5 days ([1]; KSFM plus compound alone (FIG. 17)): significantly increased; hTERT expression ([3]; early passage (p2)): quickly induced; hTERT expression ([3]; late passage (p5)): sustained measurable hTERT expression; total population doublings [4]: also increased the total population doublings; hTERT expression ([5]; early passage (p3)): robustly induced; hTERT expression ([5]; late passage (p6)): sustained measurable hTERT expression
CC1=C(C(=O)Nc2cc3cn[nH]c3cc2F)C(c2ccc(C(F)(F)F)cc2)CC(=O)N1 (stereo not shown) [GSK 429286, 4-[4-(Trifluoromethyl)phenyl]-N-(6-Fluoro-1H-indazol-5-yl)-2-methyl-6-oxo-1,4,5,6-tetrahydro-3-pyridinecarboxamide]	slight increase of total cell numbers	synergistically increased	–
Cc1cccc(-c2n[nH]cc2-c2ccc3ncccc3n2)n1 [RepSox, 2-(3-(6-Methylpyridine-2-yl)-1H-pyrazol-4-yl)-1,5-naphthyridine]	pronounced increase of total cell number	little extra increase	–
CN(C)CCOc1cc(-c2cn[nH]c2)ccc1NC(=O)C1COc2ccccc2O1 (stereo not shown) [SR 3677, N-[2-[2-(Dimethylamino)ethoxy]-4-(1H-pyrazol-4-yl)phenyl-2,3-dihydro-1,4-benzodioxin-2-carboxamidedihydrochloride]	slight increase of total cell numbers	synergistically increased	–
NC(=O)c1ccc(-c2nc(-c3ccc4c(c3)OCO4)c(-c3ccccn3)[nH]2)cc1 [SB 431542, 4-[4-(1,3-benzodioxol-5-yl)-5-(2-pyridinyl)-1H-imidazol-2-yl]benzamide]	pronounced increase of total cell number	little extra increase	–
CC1(C)CC=C(c2ccccc2)c2cc(/C=C/c3ccc(C(=O)O)cc3)ccc21 [BMS-453]	–	–	proliferation of keratinocytes (keratinocytes; 100 nM, with A83-01, EGF, isoproterenol and rHA): further increased the proliferation of keratinocytes; cell growth rate (keratinocytes; [7]): further enhance cell growth rate at sub-micromolar doses
O=C(NC1CCOCC1)c1ccc(-c2cc(-c3c[nH]nc3-c3ccccn3)ccn2)cc1 [GW 788388, 4-[4-[3-(2-Pyridinyl)-1H-pyrazol-4-yl]-2-pyridinyl]-N-(tetrahydro-2H-pyran-4-yl)-benzamide]	pronounced increase of total cell number	little extra increase	–
CC1(C)CC=C(c2cnc3ccccc3c2)c2cc(C(=O)Nc3ccc(C(=O)O)cc3)ccc21 [BMS-195614]	–	–	cell growth rate (keratinocytes; [7]): further enhance cell growth rate at sub-micromolar doses
